Data from paper PMC3355656 (2012).

Target: CDK9 (Homo sapiens, UniProt P50750)
Assay: DSF thermal shift
Assay type: binding

Chain of CDK9 (P50750 1-330): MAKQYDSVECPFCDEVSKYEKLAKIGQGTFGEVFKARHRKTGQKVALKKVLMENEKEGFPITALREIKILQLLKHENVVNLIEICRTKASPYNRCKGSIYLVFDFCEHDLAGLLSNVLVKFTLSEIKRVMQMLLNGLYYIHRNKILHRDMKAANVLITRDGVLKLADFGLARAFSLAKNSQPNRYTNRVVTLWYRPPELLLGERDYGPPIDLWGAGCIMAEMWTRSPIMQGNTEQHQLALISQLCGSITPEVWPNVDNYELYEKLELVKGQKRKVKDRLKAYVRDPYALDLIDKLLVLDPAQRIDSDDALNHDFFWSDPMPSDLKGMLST
Chain of CDK9 (O60563 1-259 partner): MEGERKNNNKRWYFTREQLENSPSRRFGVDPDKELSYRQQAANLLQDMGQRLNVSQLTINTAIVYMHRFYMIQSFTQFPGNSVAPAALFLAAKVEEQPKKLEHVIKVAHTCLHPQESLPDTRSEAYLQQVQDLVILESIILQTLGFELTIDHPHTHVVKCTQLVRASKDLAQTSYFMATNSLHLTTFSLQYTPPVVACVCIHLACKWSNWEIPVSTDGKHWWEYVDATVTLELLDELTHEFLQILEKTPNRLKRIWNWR

In the case of `OC[C@H]1O[C@@H](n2cnc3cc(Cl)c(Cl)cc32)[C@H](O)[C@@H]1O` [DRB], the “DSF thermal shift (no Kd)” value was “we tested the ability of known CDK9 inhibitors (DRB, CAN508, (S)-CR8, Roscovitine, Staurosporine”.
